This is an account of results in ChEMBL document CHEMBL1140687, “Quinazoline derivatives as MC-I inhibitors: evaluation of myocardial uptake using Positron Emission Tomography in rat and non-human primate” (Bioorg Med Chem Lett, 2007).

Series [1] is described as follows: Inhibition of MC1 by NADH-DB reductase assay. The arrangement: species or system Homo sapiens.
Series [2] relates to Rattus norvegicus. Description: Biodistribution in Sprague-Dawley rat urine at 15 uCi, iv after 30 mins. The class given is ADME, organism-based. Particulars: in vivo, 0.5 h.
The subject of series [3] is Kidney. Description: Biodistribution in Sprague-Dawley rat kidney at 15 uCi, iv after 120 mins. The class given is ADME, organism-based. Particulars: in vivo, 2 h.
Series [4] relates to Muscle tissue. Description: Biodistribution in Sprague-Dawley rat muscle at 15 uCi, iv after 120 mins. Particulars: in vivo, 2 h. The class given is ADME, organism-based.
In series [5] the test system is Blood. Description: Biodistribution in Sprague-Dawley rat blood at 15 uCi, iv after 30 mins. The class given is ADME, organism-based. To be noted: in vivo, 0.5 h.
Series [6] has as its system Femur. Briefly: Biodistribution in Sprague-Dawley rat femur at 15 uCi, iv after 30 mins. Particulars: in vivo, 0.5 h. The class given is ADME, organism-based.
In series [7] the test system is Blood. Description: Biodistribution in Sprague-Dawley rat blood at 15 uCi, iv after 120 mins. The class given is ADME, organism-based. To be noted: in vivo, 2 h.
Series [8] relates to Heart. Briefly: Biodistribution in Sprague-Dawley rat heart at 15 uCi, iv after 120 mins. The series is classed as ADME, organism-based. To be noted: in vivo, 2 h.
Series [9] has as its system Heart. Description: Biodistribution in Sprague-Dawley rat heart at 15 uCi, iv after 30 mins. The class given is ADME, organism-based. Particulars: in vivo, 0.5 h.
Series [10] deals with Kidney. Briefly: Biodistribution in Sprague-Dawley rat kidney at 15 uCi, iv after 30 mins. Particulars: in vivo, 0.5 h. The class given is ADME, organism-based.
Series [11] deals with Lung. Description: Biodistribution in Sprague-Dawley rat lung at 15 uCi, iv after 30 mins. Particulars: in vivo, 0.5 h. The series is classed as ADME, organism-based.
Series [12] has as its system Liver. Description: Biodistribution in Sprague-Dawley rat liver at 15 uCi, iv after 30 mins. The series is classed as ADME, organism-based. Particulars: in vivo, 0.5 h.
The test system of series [13] is Nucleic Acid. Description: Ratio of drug uptake in heart to femur of Sprague-Dawley rat at 60 mins. The class given is ADME. To be noted: in vivo, 1 h.
Series [14] has as its system Spleen. Briefly: Biodistribution in Sprague-Dawley rat spleen at 15 uCi, iv after 30 mins. The series is classed as ADME, organism-based. To be noted: in vivo, 0.5 h.
Series [15] concerns Rattus norvegicus. Briefly: Biodistribution in Sprague-Dawley rat urine at 15 uCi, iv after 120 mins. The class given is ADME, organism-based. To be noted: in vivo, 2 h.
Series [16] has as its system Lung. Description: Biodistribution in Sprague-Dawley rat lung at 15 uCi, iv after 120 mins. The class given is ADME, organism-based. Particulars: in vivo, 2 h.
Series [17] has as its system Nucleic Acid. Description: Ratio of drug uptake in heart to lung of Sprague-Dawley rat at 60 mins. The series is classed as ADME. To be noted: in vivo, 1 h.
The test system of series [18] is Nucleic Acid. Description: Ratio of drug uptake in heart to liver of Sprague-Dawley rat at 60 mins. Particulars: in vivo, 1 h. The class given is ADME.
For series [19], the system named is Spleen. Description: Biodistribution in Sprague-Dawley rat spleen at 15 uCi, iv after 120 mins. The class given is ADME, organism-based. Particulars: in vivo, 2 h.
In series [20] the test system is Liver. Briefly: Biodistribution in Sprague-Dawley rat liver at 15 uCi, iv after 120 mins. The series is classed as ADME, organism-based. To be noted: in vivo, 2 h.
Series [21] concerns Femur. Briefly: Biodistribution in Sprague-Dawley rat femur at 15 uCi, iv after 120 mins. Particulars: in vivo, 2 h. The series is classed as ADME, organism-based.
Series [22] relates to Nucleic Acid. Description: Ratio of drug uptake in heart to lung of Sprague-Dawley rat at 30 mins. The series is classed as ADME. To be noted: in vivo, 0.5 h.
The subject of series [23] is Muscle tissue. Description: Biodistribution in Sprague-Dawley rat muscle at 15 uCi, iv after 30 mins. The class given is ADME, organism-based. Particulars: in vivo, 0.5 h.
The test system of series [24] is Nucleic Acid. Description: Ratio of drug uptake in heart to liver of Sprague-Dawley rat at 30 mins. The class given is ADME. Particulars: in vivo, 0.5 h.

Molecules are shown by their SMILES.

In [1], `CC(C)(C)c1ccc(CNc2ncnc3ccccc23)cc1` came in with an IC50 of 241 nM.
Regarding `CCCCc1ccc(CCOc2ncnc3ccccc23)cc1`, half-maximal inhibition in [1] (IC50) required 37.5 nM.
Regarding `OCCCCc1ccc(CCOc2ncnc3ccccc23)cc1`, in series [1], the IC50 stood at 22.4 nM.
In turn, `FCCCCCc1ccc(CCOc2ncnc3ccccc23)cc1` had an IC50 in [1] of 11.3 nM.
Consider `CCCC(F)c1ccc(CCOc2ncnc3ccccc23)cc1` (configuration not stated), for which it took 19.3 nM to reach half-maximal inhibition in series [1] (IC50).
In [1], `CCCCc1ccc(COc2ncnc3ccccc23)cc1` came in with an IC50 of 1000 nM.
On the same count and under the same terms, under `OCCCCc1ccc(COc2ncnc3ccccc23)cc1` stands 414 nM; under `CCCC(O)c1ccc(CCOc2ncnc3ccccc23)cc1` (configuration not stated), 21.7 nM.
As to `[18F]CCCCCc1ccc(CCOc2ncnc3ccccc23)cc1`, the Drug uptake in series [2] is on record as 0.5 % ID/g; in series [3] it was 0.68 % ID/g; in series [4], 0.12 % ID/g; in series [5], 0.08 % ID/g; in series [6] it was 0.19 % ID/g; in [7], 0.06 % ID/g. Also, the Drug uptake is 2.5 % ID/g in series [8]; 3.22 % ID/g in series [9]; 1.99 % ID/g in series [10]; 0.28 % ID/g in series [11]; 1.29 % ID/g in series [12]; 0.19 % ID/g in series [14]. In addition, the Drug uptake in series [15] was determined as 4.44 % ID/g; in series [16] it was 0.11 % ID/g; in series [19] it was 0.07 % ID/g; in series [20] it was 0.44 % ID/g; in series [21] it was 0.65 % ID/g; in series [23], 0.08 % ID/g. Besides, the Ratio in [13] came out at 3.6; in series [17] it was 2.5; in series [18] it was 5.7; in [22], 11.3; in series [24] it was 23.
With `CC(C)(C)c1ccc(CCOc2ncnc3ccccc23)cc1` [FENAZAQUIN], the IC50 in [1] amounted to 4 nM.

In general, IC50 refers to the concentration that gives 50% inhibition.
